# Test system: Unknown protein yeast genes
# Experiment: DNA chip mRNA expression in yeast, unknown protein yeast genes (Table 1)
# Format: cell-based, Saccharomyces cerevisiae S288C
# Summary of the method: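 S. cerevisiae S288C grown at 25° C in YPD were exposed in log phase for two hours to one toxic chemical at a growth-inhibiting, non-lethal concentration; untreated cells served as control. Poly(A) mRNA was reverse-transcribed with Cy3/Cy5-dUTP and hybridized to a whole-genome yeast DNA chip at 65° C for over 12 hours; values are fluorescence ratios versus untreated.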
smiles,measurement,setting,value
"CCCCCCCCCCCCc1ccc(S(=O)(=O)[O-])cc1.[Na+] [(17), sodium dodecylbenzosulfonate]",The level of expressed mRNA in the presence of chemical substance/The level of expressed mRNA in the absence of chemical substance,"yeast gene YKL195W, incubated two hours with chemical substance",1.4
same,The level of expressed mRNA in the presence of chemical substance/The level of expressed mRNA in the absence of chemical substance,"yeast gene YKR091W, incubated two hours with chemical substance",1.6
same,The level of expressed mRNA in the presence of chemical substance/The level of expressed mRNA in the absence of chemical substance,"yeast gene YLR054C, incubated two hours with chemical substance",1.6
same,The level of expressed mRNA in the presence of chemical substance/The level of expressed mRNA in the absence of chemical substance,"yeast gene YLR149C, incubated two hours with chemical substance",1.3
same,The level of expressed mRNA in the presence of chemical substance/The level of expressed mRNA in the absence of chemical substance,"yeast gene YLR152C, incubated two hours with chemical substance",1.5
same,The level of expressed mRNA in the presence of chemical substance/The level of expressed mRNA in the absence of chemical substance,"yeast gene YLR194C, incubated two hours with chemical substance",1.0
same,The level of expressed mRNA in the presence of chemical substance/The level of expressed mRNA in the absence of chemical substance,"yeast gene YLR324W, incubated two hours with chemical substance",1.2
same,The level of expressed mRNA in the presence of chemical substance/The level of expressed mRNA in the absence of chemical substance,"yeast gene YLR350W, incubated two hours with chemical substance",1.6
same,The level of expressed mRNA in the presence of chemical substance/The level of expressed mRNA in the absence of chemical substance,"yeast gene YLR387C, incubated two hours with chemical substance",1.0
same,The level of expressed mRNA in the presence of chemical substance/The level of expressed mRNA in the absence of chemical substance,yeast gene YLR460C,1.0
same,The level of expressed mRNA in the presence of chemical substance/The level of expressed mRNA in the absence of chemical substance,"yeast gene YML117W, incubated two hours with chemical substance",1.1
same,The level of expressed mRNA in the presence of chemical substance/The level of expressed mRNA in the absence of chemical substance,"yeast gene YMR009W, incubated two hours with chemical substance",2.7
same,The level of expressed mRNA in the presence of chemical substance/The level of expressed mRNA in the absence of chemical substance,"yeast gene YMR067C, incubated two hours with chemical substance",1.0
same,The level of expressed mRNA in the presence of chemical substance/The level of expressed mRNA in the absence of chemical substance,yeast gene YMR090W,1.8
same,The level of expressed mRNA in the presence of chemical substance/The level of expressed mRNA in the absence of chemical substance,"yeast gene YMR095C, incubated two hours with chemical substance",1.0
same,The level of expressed mRNA in the presence of chemical substance/The level of expressed mRNA in the absence of chemical substance,"yeast gene YMR097C, incubated two hours with chemical substance",1.4
same,The level of expressed mRNA in the presence of chemical substance/The level of expressed mRNA in the absence of chemical substance,"yeast gene YMR102C, incubated two hours with chemical substance",2.4
same,The level of expressed mRNA in the presence of chemical substance/The level of expressed mRNA in the absence of chemical substance,"yeast gene YMR107W, incubated two hours with chemical substance",1.3
same,The level of expressed mRNA in the presence of chemical substance/The level of expressed mRNA in the absence of chemical substance,"yeast gene YMR180C, incubated two hours with chemical substance",1.4
same,The level of expressed mRNA in the presence of chemical substance/The level of expressed mRNA in the absence of chemical substance,"yeast gene YMR184W, incubated two hours with chemical substance",1.4
same,The level of expressed mRNA in the presence of chemical substance/The level of expressed mRNA in the absence of chemical substance,"yeast gene YMR191W, incubated two hours with chemical substance",1.2
same,The level of expressed mRNA in the presence of chemical substance/The level of expressed mRNA in the absence of chemical substance,"yeast gene YMR295C, incubated two hours with chemical substance",2.1
same,The level of expressed mRNA in the presence of chemical substance/The level of expressed mRNA in the absence of chemical substance,"yeast gene YMR316W, incubated two hours with chemical substance",6.9
same,The level of expressed mRNA in the presence of chemical substance/The level of expressed mRNA in the absence of chemical substance,"yeast gene YNL044W, incubated two hours with chemical substance",3.1
same,The level of expressed mRNA in the presence of chemical substance/The level of expressed mRNA in the absence of chemical substance,"yeast gene YNL074C, incubated two hours with chemical substance",1.1
same,The level of expressed mRNA in the presence of chemical substance/The level of expressed mRNA in the absence of chemical substance,"yeast gene YNL092W, incubated two hours with chemical substance",1.7
same,The level of expressed mRNA in the presence of chemical substance/The level of expressed mRNA in the absence of chemical substance,"yeast gene YNL115C, incubated two hours with chemical substance",1.6
same,The level of expressed mRNA in the presence of chemical substance/The level of expressed mRNA in the absence of chemical substance,"yeast gene YNL156C, incubated two hours with chemical substance",1.8
same,The level of expressed mRNA in the presence of chemical substance/The level of expressed mRNA in the absence of chemical substance,"yeast gene YNL234W, incubated two hours with chemical substance",1.0
same,The level of expressed mRNA in the presence of chemical substance/The level of expressed mRNA in the absence of chemical substance,"yeast gene YNL281W, incubated two hours with chemical substance",0.9
same,The level of expressed mRNA in the presence of chemical substance/The level of expressed mRNA in the absence of chemical substance,"yeast gene YNL305C, incubated two hours with chemical substance",1.7
same,The level of expressed mRNA in the presence of chemical substance/The level of expressed mRNA in the absence of chemical substance,"yeast gene YNR068C, incubated two hours with chemical substance",1.0
same,The level of expressed mRNA in the presence of chemical substance/The level of expressed mRNA in the absence of chemical substance,"yeast gene YOL032W, incubated two hours with chemical substance",1.7
same,The level of expressed mRNA in the presence of chemical substance/The level of expressed mRNA in the absence of chemical substance,"yeast gene YOL036W, incubated two hours with chemical substance",1.1
same,The level of expressed mRNA in the presence of chemical substance/The level of expressed mRNA in the absence of chemical substance,"yeast gene YOL047C, incubated two hours with chemical substance",1.5
same,The level of expressed mRNA in the presence of chemical substance/The level of expressed mRNA in the absence of chemical substance,"yeast gene YOL071W, incubated two hours with chemical substance",1.3
same,The level of expressed mRNA in the presence of chemical substance/The level of expressed mRNA in the absence of chemical substance,"yeast gene YOL082W, incubated two hours with chemical substance",1.6
same,The level of expressed mRNA in the presence of chemical substance/The level of expressed mRNA in the absence of chemical substance,"yeast gene YOL083W, incubated two hours with chemical substance",1.4
same,The level of expressed mRNA in the presence of chemical substance/The level of expressed mRNA in the absence of chemical substance,"yeast gene YOL117W, incubated two hours with chemical substance",1.3
same,The level of expressed mRNA in the presence of chemical substance/The level of expressed mRNA in the absence of chemical substance,"yeast gene YOL131W, incubated two hours with chemical substance",1.1
same,The level of expressed mRNA in the presence of chemical substance/The level of expressed mRNA in the absence of chemical substance,yeast gene YOL150C,2.7
same,The level of expressed mRNA in the presence of chemical substance/The level of expressed mRNA in the absence of chemical substance,"yeast gene YOL162W, incubated two hours with chemical substance",1.2
same,The level of expressed mRNA in the presence of chemical substance/The level of expressed mRNA in the absence of chemical substance,"yeast gene YOR019W, incubated two hours with chemical substance",1.7
same,The level of expressed mRNA in the presence of chemical substance/The level of expressed mRNA in the absence of chemical substance,"yeast gene YOR197W, incubated two hours with chemical substance",1.5
same,The level of expressed mRNA in the presence of chemical substance/The level of expressed mRNA in the absence of chemical substance,"yeast gene YPL087W, incubated two hours with chemical substance",2.1
same,The level of expressed mRNA in the presence of chemical substance/The level of expressed mRNA in the absence of chemical substance,"yeast gene YPL196W, incubated two hours with chemical substance",1.4
same,The level of expressed mRNA in the presence of chemical substance/The level of expressed mRNA in the absence of chemical substance,"yeast gene YPL206C, incubated two hours with chemical substance",1.4
same,The level of expressed mRNA in the presence of chemical substance/The level of expressed mRNA in the absence of chemical substance,"yeast gene YPL222W, incubated two hours with chemical substance",1.1
same,The level of expressed mRNA in the presence of chemical substance/The level of expressed mRNA in the absence of chemical substance,"yeast gene YPR023C, incubated two hours with chemical substance",1.0
same,The level of expressed mRNA in the presence of chemical substance/The level of expressed mRNA in the absence of chemical substance,"yeast gene YPR151C, incubated two hours with chemical substance",1.3
